Measured values: ChEMBL document CHEMBL1201862, “PubChem BioAssay data set” (2004)
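1) Cells in 96-well plates. 2) Compound, 48 h, 5 concentrations. 3) Linear interpolation between surrounding doses. 4) Unreached endpoint = highest concentration. Here, GI50 denotes the concentration required for 50% inhibition of growth.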 Calls of active or inactive are those of the source. Cut-off read from the data, not from the text of the source: active = GI50 up to about 1.1 µM and inactive = higher.

Assays:
Assay in all cases: inhibition of tumour cell growth, NCI panel, 48 h
Malme-3M = tested on: Malme-3M
A498 = tested on: A498
SNB-78 = tested on: SNB-78
SK-MEL-2 = tested on: SK-MEL-2
M19-MEL = tested on: M19-MEL
UACC-257 = tested on: UACC-257
OVCAR-4 = tested on: OVCAR-4
U-251 = tested on: U-251
SR = tested on: SR
SK-MEL-28 = tested on: SK-MEL-28
SNB-19 = tested on: SNB-19
ACHN = tested on: ACHN
LXFL 529 = tested on: LXFL 529
RXF 631 = tested on: RXF 631
HOP-62 = tested on: HOP-62
RPMI-8226 = tested on: RPMI-8226
K562 = tested on: K562
SNB-75 = tested on: SNB-75
NCI-H226 = tested on: NCI-H226
MOLT-4 = tested on: MOLT-4
OVCAR-3 = tested on: OVCAR-3
SF-268 = tested on: SF-268
IGROV-1 = tested on: IGROV-1
DLD-1 = tested on: DLD-1
HCT-15 = tested on: HCT-15
SF-539 = tested on: SF-539
HCC 2998 = tested on: HCC 2998
HL-60 = tested on: HL-60
HOP-18 = tested on: HOP-18
TK-10 = tested on: TK-10
RXF 393 = tested on: RXF 393
DMS-114 = tested on: DMS-114
SK-OV-3 = tested on: SK-OV-3
SN12C = tested on: SN12C
OVCAR-8 = tested on: OVCAR-8
SF-295 = tested on: SF-295
A549 = tested on: A549
KM12 = tested on: KM12
CAKI-1 = tested on: CAKI-1
HT-29 = tested on: HT-29
KM-20L2 = tested on: KM-20L2
OVCAR-5 = tested on: OVCAR-5
LOX IMVI = tested on: LOX IMVI
CCRF-CEM = tested on: CCRF-CEM
UACC-62 = tested on: UACC-62
786-0 = tested on: 786-0
M14 = tested on: M14
SW-620 = tested on: SW-620
UO-31 = tested on: UO-31
NCI-H460 = tested on: NCI-H460
HOP-92 = tested on: HOP-92
NCI-H522 = tested on: NCI-H522
HCT-116 = tested on: HCT-116
DMS-273 = tested on: DMS-273
NCI-H23 = tested on: NCI-H23
EKVX = tested on: EKVX
XF498 = tested on: XF498
SK-MEL-5 = tested on: SK-MEL-5
COLO 205 = tested on: COLO 205

Compound: COc1cccc2c1C(=O)c1c(O)c3c(c(O)c1C2=O)C[C@@](O)(C(=O)CO)CC3OC1CC(NCCCCC(OC(C)=O)OC(C)=O)C(O)C(C)O1 (some centres undefined)
- GI50 (Malme-3M): 0.0048 µM (active)
- GI50 (A498): 0.00365 µM (active)
- GI50 (SNB-78): 0.00209 µM (active)
- GI50 (SK-MEL-2): 0.00212 µM (active)
- GI50 (M19-MEL): 0.00345 µM (active)
- GI50 (UACC-257): 0.00468 µM (active)
- GI50 (OVCAR-4): 0.00157 µM (active)
- GI50 (U-251): 0.00173 µM (active)
- GI50 (SR): 0.000337 µM (active)
- GI50 (SK-MEL-28): 0.00335 µM (active)
- GI50 (SNB-19): 0.00329 µM (active)
- GI50 (ACHN): 0.00243 µM (active)
- GI50 (LXFL 529): 0.00214 µM (active)
- GI50 (RXF 631): 0.00137 µM (active)
- GI50 (HOP-62): 0.0021 µM (active)
- GI50 (RPMI-8226): 0.00261 µM (active)
- GI50 (K562): 0.00197 µM (active)
- GI50 (SNB-75): 0.00137 µM (active)
- GI50 (NCI-H226): 0.00227 µM (active)
- GI50 (MOLT-4): 0.00235 µM (active)
- GI50 (OVCAR-3): 0.00349 µM (active)
- GI50 (SF-268): 0.00313 µM (active)
- GI50 (IGROV-1): 0.0046 µM (active)
- GI50 (DLD-1): 0.00342 µM (active)
- GI50 (HCT-15): 0.00246 µM
- GI50 (SF-539): 0.00212 µM (active)
- GI50 (HCC 2998): 0.00223 µM (active)
- GI50 (HL-60): 0.00202 µM (active)
- GI50 (HOP-18): 0.0033 µM (active)
- GI50 (TK-10): 0.00322 µM (active)
- GI50 (RXF 393): 0.00193 µM (active)
- GI50 (DMS-114): 0.00402 µM (active)
- GI50 (SK-OV-3): 0.003 µM (active)
- GI50 (SN12C): 0.00348 µM (active)
- GI50 (OVCAR-8): 0.00305 µM (active)
- GI50 (SF-295): 0.0034 µM (active)
- GI50 (A549): 0.00243 µM (active)
- GI50 (KM12): 0.0024 µM (active)
- GI50 (CAKI-1): 0.00251 µM (active)
- GI50 (HT-29): 0.00312 µM (active)
- GI50 (KM-20L2): 0.00242 µM (active)
- GI50 (OVCAR-5): 0.0047 µM (active)
- GI50 (LOX IMVI): 0.00179 µM (active)
- GI50 (CCRF-CEM): 0.00227 µM (active)
- GI50 (UACC-62): 0.00182 µM (active)
- GI50 (786-0): 0.00298 µM (active)
- GI50 (M14): 0.00169 µM (active)
- GI50 (SW-620): 0.00259 µM (active)
- GI50 (UO-31): 0.00192 µM (active)
- GI50 (NCI-H460): 0.00115 µM (active)
- GI50 (HOP-92): 0.0032 µM (active)
- GI50 (NCI-H522): 0.0015 µM (active)

Compound: COc1nc2[nH]ccc2c(=O)n1C
- GI50 (HCT-116): > 100 µM (inactive)
- GI50 (Malme-3M): > 100 µM (inactive)
- GI50 (A498): > 100 µM (inactive)
- GI50 (SNB-78): > 100 µM (inactive)
- GI50 (SK-MEL-2): > 100 µM (inactive)
- GI50 (UACC-257): > 100 µM (inactive)
- GI50 (OVCAR-4): 20.5 µM (inactive)
- GI50 (U-251): > 100 µM (inactive)
- GI50 (SR): > 100 µM (inactive)
- GI50 (SK-MEL-28): > 100 µM (inactive)
- GI50 (SNB-19): > 100 µM (inactive)
- GI50 (ACHN): > 100 µM (inactive)
- GI50 (LXFL 529): > 100 µM (inactive)
- GI50 (RXF 631): > 100 µM (inactive)
- GI50 (RPMI-8226): > 100 µM (inactive)
- GI50 (K562): > 100 µM (inactive)
- GI50 (SNB-75): > 100 µM (inactive)
- GI50 (MOLT-4): > 100 µM (inactive)
- GI50 (SF-268): > 100 µM (inactive)
- GI50 (IGROV-1): > 100 µM (inactive)
- GI50 (DLD-1): > 100 µM (inactive)
- GI50 (HCT-15): > 100 µM
- GI50 (SF-539): > 100 µM (inactive)
- GI50 (HL-60): > 100 µM (inactive)
- GI50 (HOP-18): > 100 µM (inactive)
- GI50 (TK-10): > 100 µM (inactive)
- GI50 (RXF 393): > 100 µM (inactive)
- GI50 (DMS-114): > 100 µM (inactive)
- GI50 (SN12C): > 100 µM (inactive)
- GI50 (DMS-273): > 100 µM (inactive)
- GI50 (NCI-H23): > 100 µM (inactive)
- GI50 (OVCAR-8): > 100 µM (inactive)
- GI50 (SF-295): > 100 µM (inactive)
- GI50 (EKVX): > 100 µM (inactive)
- GI50 (A549): > 100 µM (inactive)
- GI50 (KM12): > 100 µM (inactive)
- GI50 (CAKI-1): 24.3 µM (inactive)
- GI50 (HT-29): > 100 µM (inactive)
- GI50 (OVCAR-5): > 100 µM (inactive)
- GI50 (LOX IMVI): > 100 µM (inactive)
- GI50 (CCRF-CEM): > 100 µM (inactive)
- GI50 (XF498): > 100 µM (inactive)
- GI50 (M14): > 100 µM (inactive)
- GI50 (SW-620): > 100 µM (inactive)
- GI50 (NCI-H460): > 100 µM (inactive)
- GI50 (HOP-92): > 100 µM (inactive)
- GI50 (SK-MEL-5): > 100 µM (inactive)
- GI50 (COLO 205): > 100 µM (inactive)

Compound: Cc1cccc2c1C(=O)OC2(c1cccc2ccccc12)c1cccc2ccccc12
- GI50 (HCT-116): > 100 µM (inactive)
- GI50 (Malme-3M): > 100 µM (inactive)
- GI50 (A498): > 100 µM (inactive)
- GI50 (SK-MEL-2): > 100 µM (inactive)
- GI50 (M19-MEL): > 100 µM (inactive)
- GI50 (UACC-257): > 100 µM (inactive)
- GI50 (OVCAR-4): 89.9 µM (inactive)
- GI50 (U-251): 70.1 µM (inactive)
- GI50 (SR): > 100 µM (inactive)
- GI50 (SK-MEL-28): > 100 µM (inactive)
- GI50 (SNB-19): 81.1 µM (inactive)
- GI50 (ACHN): 63.5 µM (inactive)
- GI50 (LXFL 529): > 100 µM (inactive)
- GI50 (RXF 631): 11.3 µM (inactive)
- GI50 (HOP-62): 27.4 µM (inactive)
- GI50 (K562): > 100 µM (inactive)
- GI50 (SNB-75): 21.3 µM (inactive)
- GI50 (NCI-H226): > 100 µM (inactive)
- GI50 (MOLT-4): > 100 µM (inactive)
- GI50 (OVCAR-3): > 100 µM (inactive)
- GI50 (SF-268): 56 µM (inactive)
- GI50 (IGROV-1): > 100 µM (inactive)
- GI50 (DLD-1): > 100 µM (inactive)
- GI50 (HCT-15): > 100 µM
- GI50 (HCC 2998): > 100 µM (inactive)
- GI50 (HL-60): > 100 µM (inactive)
- GI50 (HOP-18): 52.6 µM (inactive)
- GI50 (TK-10): > 100 µM (inactive)
- GI50 (RXF 393): 27.2 µM (inactive)
- GI50 (DMS-114): 40.7 µM (inactive)
- GI50 (SK-OV-3): > 100 µM (inactive)
- GI50 (SN12C): > 100 µM (inactive)
- GI50 (DMS-273): > 100 µM (inactive)
- GI50 (NCI-H23): 26.7 µM (inactive)
- GI50 (OVCAR-8): 40.2 µM (inactive)
- GI50 (SF-295): 33.6 µM (inactive)
- GI50 (EKVX): > 100 µM (inactive)
- GI50 (A549): > 100 µM (inactive)
- GI50 (KM12): > 100 µM (inactive)
- GI50 (CAKI-1): > 100 µM (inactive)
- GI50 (HT-29): > 100 µM (inactive)
- GI50 (KM-20L2): > 100 µM (inactive)
- GI50 (OVCAR-5): > 100 µM (inactive)
- GI50 (LOX IMVI): > 100 µM (inactive)
- GI50 (CCRF-CEM): > 100 µM (inactive)
- GI50 (UACC-62): > 100 µM (inactive)
- GI50 (786-0): 52.8 µM (inactive)
- GI50 (M14): > 100 µM (inactive)
- GI50 (SW-620): > 100 µM (inactive)
- GI50 (UO-31): 79.3 µM (inactive)
- GI50 (NCI-H460): > 100 µM (inactive)
- GI50 (SK-MEL-5): > 100 µM (inactive)
- GI50 (NCI-H522): 61 µM (inactive)
- GI50 (COLO 205): > 100 µM (inactive)
